Measurements from patent publication US20030135033A1, “Compounds and methods for the identification and/ or validation of a target” (priority 2002, published 2003).
d = 2'-deoxy (DNA); m = 2'-O-methyl

Experiments:
Hela cells = assay: Cell growth on matrigel; assay type: cell-based, human; details: 48 h transfection, then 48 to 72 h on matrigel, versus control GeneBloc
Source text: More particularly, a schematic pathway with PTEN inhibiting PI-3K activity is shown which would normally phosphorylate Akt thus leading to proliferation, survival and migration of HeLa cells as a model system for PTEN +/+ cells. FIG. 9 B presents the Western immunoblot analysis of an experiment studying the influence of PTEN specific antisense oligonucleotide or a control antisense nucleotide designated as mismatch GeneBloc™. PTEN is only present in the control sample, but is absent when PTEN-specific antisense oligonucleotides are used. The successful knockdown of PTEN causes phosphorylation of Akt, indicative of induction of the signalling pathway. […] Growth on matrigel is used as a surrogate in vitro assay for metastatic or invasive cell growth. […]
Loss of PTEN function has been correlated with an increased metastatic growth potential in late stage human cancers (Cantley, L. C. and Neel, B. G. (1999). New insights into tumor suppression: PTEN suppresses tumor formation by restraining the phosphoinositide 3-kinase/AKT pathway. Proc Natl Acad Sci U S A 96, 4240-4245; Ali, I. U. (2000). Gatekeeper for endometrium: the PTEN tumor suppressor gene. J Natl Cancer Inst 92, 861-863). […] HeLa cells expressing an inducible version of a constitutively active PI 3-kinase, p110* […] were analyzed in parallel. […]

MEK = assay: Akt phosphorylation induced by PTEN GeneBlocs in 3Y1 cells in presence of MEK inhibitor; assay type: cell-based, rat; details: 30 nM PTEN 53 or 57, 48 h, 50 μM PD98059 30 min before lysis
Method: In this experiment two different antisense oligonucleotides (PTEN 53 and PTEN 57) were used together with further compounds, namely DMSO (D), Ly294002 (Ly) and PD98059 (PD) being an inhibitor for MEK-½ kinase. More particularly, the first test was carried out using the antisense oligonucleotide PTEN 53 in combination either with DMSO, LY or PD. The same experiment was carried out using PTEN 57 also directed against PTEN mRNA, and using GBC as defined above as a control antisense oligonucleotide. More particularly, 3Y1 cells on 10 cm plates were transfected in triplicates with 30 nM of the GeneBlocs PTEN 53, 57 or with GBC for 48 h. 30 min before lysis the cells were treated with 10 μM PI 3-kinase inhibitor LY294002 (LY), 50 μM MEK inhibitor PD98059 (PD) or with the vehicle DMSO (D). The positions of p110, phosphorylated Akt (P*-Akt) and PTEN are indicated on the right. […]
Pools of stably transfected HeLa cells in growth medium were stimulated with 200 nM 4-OHT in dimethylsulfoxide (DMSO) or with DMSO at 37° C. for 20 h. In experiments in which the effect of LY294002 or PD98059 was analyzed, the reagents were added in DMSO at 10 μg/ml or 50 μg/ml 30 min to 1 h before lysis. […]

PI 3-kinase = assay: Akt phosphorylation induced by PTEN GeneBlocs in 3Y1 cells in presence of PI 3-kinase inhibitor; assay type: cell-based, rat; details: 30 nM PTEN 53 or 57, 48 h, 10 μM LY294002 30 min before lysis

For “cuggaucAGAGTCAGTgguguca (CUGGAUCAGAGTCAGTGGUGUCA; sugars from the 5' end m7 d9 m7, backbone and methylation of C not given here; DNA gap phosphorothioate-linked, ends capped, inverted abasic or similar, further chemistry not fully specified) [PTEN 52, third generation antisense oligonucleotide (GeneBloc) against PTEN]”, the growth on matrigel (Hela cells) was “increased potential to form network structures on matrigel and grew better”.
For COc1cccc(-c2cc(=O)c3ccccc3o2)c1N [PD98059], the “increase in Akt phosphorylation induced by the PTEN GeneBlocs” value (MEK) was “had no effect”.
With O=c1cc(N2CCOCC2)oc2c(-c3ccccc3)cccc12 [LY294002, 2-(4-morpholinyl)-8-phenylchromone] the “increase in Akt phosphorylation induced by the PTEN GeneBlocs” value (PI 3-kinase) was “completely abrogated”.
